Where “and” joins values, the source holds several entries; their conditions need not be identical. Identical values can stand only once. Counter-ions that a name gives are not always drawn. Like-named read-outs stand apart in the source and are kept apart here.
Tests used:
[1] = Plasma and brain compound determinations (LC-MS/MS); type: in vivo; conditions: CD1 mice, 2.5 mg/kg each, one hour after dosing; for concentration at 1 h / Kp at 1 h: CD1, mouse, 2.5 mg/kg
Method: CD1 mice (n=3) were dosed concurrently with CNDR-51990 and CNDR-51993 (representing a 1:1 mixture of two diastereoisomers, 52017 (67) and 52016 (68)) at 2.5 mg/kg each). One hour after dosing, mice were euthanized and blood collected, followed by perfusion with saline. Mouse brains were homogenized in 10 mM ammonium acetate, pH 5.7 (1:2; w/v) using a handheld sonic homogenizer. Mouse plasma was obtained from blood that was collected into a 1.5 ml tube containing 0.5M EDTA solution and which was centrifuged for 10 minutes at 4500 g at 4° C. Aliquots (50 μl) of brain homogenates or plasma were mixed with 0.2 ml of acetonitrile, centrifuged at 15,000×g, and the resulting supernatant was used for subsequent LC-MS/MS analysis. The LC-MS/MS analysis was conducted by Inotiv, Inc., utilizing methods essentially as previously described (Lou et al., J. Med. Chem. 57:6116-27, 2014).

[2] = system: total α-tubulin; test: cell-based assay of MT-stabilization: total α-tubulin in QBI293 cell lysates by ELISA; conditions: QB1293 cells; for fold induction at 10 µM / fold induction at 1 µM: QBI293, 4 h
Method: (§1) All test compounds were evaluated in a previously described cell-based assay of MT-stabilization (see Kovalevich, J., et al. (2016) Characterization of Brain-Penetrant Pyrimidine-Containing Molecules with Differential Microtubule-Stabilizing Activities Developed as Potential Therapeutic Agents for Alzheimer's Disease and Related Tauopathies. J Pharmacol Exp Ther 357, 432-450, incorporated herein by reference), in which compound-dependent changes in tubulin polymerization and total tubulin levels were determined after 4 h of incubation of QBI293 cells with 1 and 10 μM compound via quantification of acetylated α-tubulin and total tubulin in cell lysates by ELISA.
(§2) Novel C6 nitrile- and alkyne-substituted triazolopyrimidine examples that have improved in vitro activity relative to previously described examples, with the general structure depicted in Formula I. The activity of the novel C6-nitrile substituted compounds were tested in a previously described cellular assay of MT-stabilization (Kovalevich, J., et al. (2016)). As summarized in Table 2. below, eighteen examples were synthesized and tested. In all cases, these compounds were confirmed to be active Class I triazolopyrimidines. […] Table 2 provides fold-changes in acetylated α-tubulin and total α-tubulin levels in QB1293 cells after 4 h incubation with test compounds at either 1 or 10 μM. Data are expressed as the fold-change relative to vehicle-treated cells. *p<0.05 and **p<0.01 by one-way ANOVA.
(§3) Compounds produced according to the preceding synthetic schemes were for microtubule stabilization. Fold-changes in acetylated α-tubulin (AcTub) and α-tubulin (α-Tub) levels in QB1293 cells after 4 h incubation with test compounds at either 1 or 10 μM. Reported values for AcTub and α-Tub represent the fold-change over control (DMSO)-treated cells (*p<0.05 and **p<0.01 by one-way ANOVA); numbers in parentheses represent the fold-change of AcTub over positive control-treated cells (i.e., 100 nM of cevipabulin). Changes of +/−15% of control are deemed to be within the day-to-day assay variability and non-significant.

[3] = system: acetylated α-tubulin; test: cell-based assay of MT-stabilization: acetylated α-tubulin in QBI293 cell lysates by ELISA; conditions: QBI293; QB1293 cells, 4 h incubation, 1 μM compound; relative to vehicle-treated cells; *p<0.05, **p<0.01; read-out: AcTub l μM (fold-change in acetylated α-tubulin)
Method: as §1, §2, §3

[4] = dosed concurrently, individual animals 1-3
[5] = 4 h incubation, 1 μM compound, relative to vehicle-treated cells
[6] = 4 h incubation, 10 μM compound, relative to vehicle-treated cells, read-out: α-Tub 10 μM (fold-change in total α-tubulin)
[7] = 4 h incubation, 1 μM compound, relative to vehicle-treated cells, read-out: α-Tub 1 μM (fold-change in total α-tubulin)
[8] = Table 4, 4 h, 1 μM, read-out: α-Tub l μM (fold-change over control (DMSO)-treated cells)
[9] = Table 4, 4 h, 10 μM, read-out: α-Tub 10 μM (fold-change over control (DMSO)-treated cells)

Structure (SMILES) | fold induction at 10 µM [2, 6] | fold induction at 1 µM [2, 7] | fold induction at 1 µM [2, 8] | other results
CC(C)[C@@H](C)Nc1c(-c2ccc(C#N)cc2F)c(Cl)nc2ncnn12 [CNDR-51993, (R)-4-(5-chloro-7-((3-methylbutan-2-yl)amino)-[1,2,4]triazolo[1,5-a]pyrimidin-6-yl)-3-fluorobenzonitrile] |  |  |  | concentration at 1 h ([1]; brain, dosed concurrently, individual animals 1-3, read-out: Brain Concentration): 209 ng/g; concentration at 1 h ([1]; brain, dosed concurrently, mean, n=3, read-out: Brain Concentration, Mean): 225 ng/g; Kp at 1 h ([1]; brain, individual animals 1-3, read-out: Brain/Plasma): 0.86; Kp at 1 h ([1]; brain, mean, n=3, read-out: Brain/Plasma, Mean): 1.09; concentration at 1 h ([1]; plasma, dosed concurrently, individual animals 1-3, read-out: Plasma Concentration): 242 ng/mL; concentration at 1 h ([1]; plasma, dosed concurrently, mean, n=3, read-out: Plasma Concentration, Mean): 206 ng/mL; Brain Concentration [1, 4]: 211 ng/g and 254 ng/g; Plasma Concentration [1, 4]: 186 ng/mL and 190 ng/mL; Brain/Plasma ([1]; individual animals 1-3): 1.13 and 1.34
N#Cc1cc(F)c(-c2c(Cl)nc3ncnn3c2N2CCCCCCC2)c(F)c1 [Compound 77, 4-(7-(azocan-1-yl)-5-chloro-[1,2,4]triazolo[1,5-a]pyrimidin-6-yl)-3,5-difluorobenzonitrile] | 0.99 |  |  | α-Tub 1 μM (fold-change in total α-tubulin) [2, 5]: 1.01 +/− 0.02 fold-change
CC(C)[C@@H](C)Nc1c(-c2c(F)cc(C#N)cc2F)c(Cl)nc2ncnn12 [Compound 66, (R)-4-(5-chloro-7-((3-methylbutan-2-yl)amino)-[1,2,4]triazolo[1,5-a]pyrimidin-6-yl)-3,5-difluorobenzonitrile] | 0.94 | 0.93 |  | 
CNCC#Cc1cc(F)c(-c2c(Cl)nc3ncnn3c2N[C@H](C)C(C)(C)C)c(F)c1 [TAL-638, (R)-5-chloro-6-(2,6-difluoro-4-(3-(methylamino)prop-1-yn-1-yl)phenyl)-N-(3,3-dimethylbutan-2-yl)-[1,2,4]triazolo[1,5-a]pyrimidin-7-amine hydrochloride] |  |  | 0.93 | fold induction at 10 µM [2, 9]: 1
CC(C)[C@@H](C)Nc1c(-c2c(F)cc(C#CCN(C)C)cc2F)c(Cl)nc2ncnn12 [TAL-546, (R)-5-chloro-6-(4-(3-(dimethylamino)prop-1-yn-1-yl)-2,6-difluorophenyl)-N-(3-methylbutan-2-yl)-[1,2,4]triazolo[1,5-a]pyrimidin-7-amine] |  |  | 0.98 | 
C[C@@H](Nc1c(-c2c(F)cc(C#CCCN(C)C)cc2F)c(Cl)nc2ncnn12)C(C)(C)C [TAL-664, (R)-5-chloro-6-(4-(4-(dimethylamino)but-1-yn-1-yl)-2,6-difluorophenyl)-N-(3,3-dimethylbutan-2-yl)-[1,2,4]triazolo[1,5-a]pyrimidin-7-amine] |  |  | 0.88 | fold induction at 10 µM [2, 9]: 0.96
C#Cc1cc(F)c(-c2c(Cl)nc3ncnn3c2N[C@H](C)C(C)C)c(F)c1 [TAL-487, (R)-5-chloro-6-(4-ethynyl-2,6-difluorophenyl)-N-(3-methylbutan-2-yl)-[1,2,4]triazolo[1,5-a]pyrimidin-7-amine] |  |  | 0.98 | 
N#Cc1cc(F)c(-c2c(Cl)nc3ncnn3c2N2CCCCC2)c(F)c1 [Compound 73] | 1.07 | 1 |  | fold induction at 1 µM [3]: 1
CC(C)[C@@H](Nc1c(-c2ccc(C#N)cc2F)c(Cl)nc2ncnn12)C(F)(F)F [Compound 63, (R)-4-(5-chloro-7-((1,1,1-trifluoro-3-methylbutan-2-yl)amino)-[1,2,4]triazolo[1,5-a]pyrimidin-6-yl)-3-fluorobenzonitrile] | 0.98 | 0.99 |  | 
C[C@H](Nc1c(-c2ccc(C#N)cc2F)c(Cl)nc2ncnn12)C(F)(F)F [Compound 61, (S)-4-(5-Chloro-7-((1,1,1-trifluoropropan-2-yl)amino)-[1,2,4]triazolo[1,5-a]pyrimidin-6-yl)-3-fluorobenzonitrile] | 1 | 1 |  | 
C[C@H](Nc1c(-c2c(F)cc(C#CCCO)cc2F)c(Cl)nc2ncnn12)C(F)(F)F [TAL-641, (S)-4-(4-(5-chloro-7-((1,1,1-trifluoropropan-2-yl)amino)-[1,2,4]triazolo[1,5-a]pyrimidin-6-yl)-3,5-difluorophenyl)but-3-yn-1-ol] |  |  | 0.98 | 
CNCC#Cc1cc(F)c(-c2c(Cl)nc3ncnn3c2N[C@H](C)C(C)C)c(F)c1 [TAL-637, (R)-5-chloro-6-(2,6-difluoro-4-(3-(methylamino)prop-1-yn-1-yl)phenyl)-N-(3-methylbutan-2-yl)-[1,2,4]triazolo[1,5-a]pyrimidin-7-amine hydrochloride] |  |  | 0.96 | fold induction at 10 µM [2, 9]: 0.96
C[C@@H](Nc1c(-c2c(F)cc(C#CCCCO)cc2F)c(Cl)nc2ncnn12)C(C)(C)C [TAL-601, (R)-5-(4-(5-chloro-7-((3,3-dimethylbutan-2-yl)amino)-[1,2,4]triazolo[1,5-a]pyrimidin-6-yl)-3,5-difluorophenyl)pent-4-yn-1-ol] |  |  | 1.18 | 
N#Cc1ccc(-c2c(Cl)nc3ncnn3c2N2CCCCCC2)c(F)c1 [Compound 76, 4-(7-(Azepan-1-yl)-5-chloro-[1,2,4]triazolo[1,5-a]pyrimidin-6-yl)-3-fluorobenzonitrile] | 0.99 |  |  | α-Tub 1 μM (fold-change in total α-tubulin) [2, 5]: 1.04 +/− 0.05 fold-change
C[C@H](Nc1c(-c2c(F)cc(C#N)cc2F)c(Cl)nc2ncnn12)C(F)(F)F [Compound 19, (S)-4-(5-Chloro-7-((1,1,1-trifluoropropan-2-yl)amino)-[1,2,4]triazolo[1,5-a]pyrimidin-6-yl)-3,5-difluorobenzonitrile] | 0.95 ± 0.05 | 0.94 ± 0.02 |  | 
CC(C)[C@@H](C)Nc1c(-c2ccc(C#N)cc2F)c(Cl)nc2ncnn12 [Compound 68, (R)-4-(5-chloro-7-((3-methylbutan-2-yl)amino)-[1,2,4]triazolo[1,5-a]pyrimidin-6-yl)-3-fluorobenzonitrile] |  |  |  | α-Tub 1 μM (fold-change in total α-tubulin) ([2]; 4 h incubation, 1 μM compound, relative to vehicle-treated cells, listed as 52016 (68)): 0.95 +/− 0.02 fold-change; α-Tub 10 μM (fold-change in total α-tubulin) ([2]; 4 h incubation, 10 μM compound, relative to vehicle-treated cells, listed as 52016 (68)): 0.92 +/− 0.01 fold-change
N#Cc1cc(F)c(-c2c(Cl)nc3ncnn3c2N2CCCCCC2)c(F)c1 [Compound 75, 4-(7-(Azepan-1-yl)-5-chloro-[1,2,4]triazolo[1,5-a]pyrimidin-6-yl)-3,5-difluorobenzonitrile] | 0.99 | 0.98 ± 0.03 |  | 
C[C@H](Nc1c(-c2c(F)cc(C#CCCCO)cc2F)c(Cl)nc2ncnn12)C(F)(F)F [TAL-642, (S)-5-(4-(5-chloro-7-((1,1,1-trifluoropropan-2-yl)amino)-[1,2,4]triazolo[1,5-a]pyrimidin-6-yl)-3,5-difluorophenyl)pent-4-yn-1-ol] |  |  | 0.93 | fold induction at 10 µM [2, 9]: 0.87

From patent US20230167121A1, “SUBSTITUTED {1,2,4,} TRIAZOLO{1,5-A} PYRIMIDINE COMPOUNDS AND USE IN STABILIZING MICROTUBULES” (THE TRUSTEES OF THE UNIVERSITY OF PENNSYLVANIA, priority 2020, published 2023)
